Reference: ChEMBL document CHEMBL1201862, “PubChem BioAssay data set” (2004)
Activity calls are given as the source filed them.

Legend:
[1] = target: T1, Corticotropin-releasing factor receptor 2/Corticotropin-releasing factor-binding protein (Homo sapiens, UniProt P24387+Q13324); test: Dose Response confirmation of uHTS hits for small molecule antagonists of the CRF-binding protein and CRF-R2 receptor complex.; format: functional; details: read-out: IC50_Mean
T1 sequence (Q13324 whole entry): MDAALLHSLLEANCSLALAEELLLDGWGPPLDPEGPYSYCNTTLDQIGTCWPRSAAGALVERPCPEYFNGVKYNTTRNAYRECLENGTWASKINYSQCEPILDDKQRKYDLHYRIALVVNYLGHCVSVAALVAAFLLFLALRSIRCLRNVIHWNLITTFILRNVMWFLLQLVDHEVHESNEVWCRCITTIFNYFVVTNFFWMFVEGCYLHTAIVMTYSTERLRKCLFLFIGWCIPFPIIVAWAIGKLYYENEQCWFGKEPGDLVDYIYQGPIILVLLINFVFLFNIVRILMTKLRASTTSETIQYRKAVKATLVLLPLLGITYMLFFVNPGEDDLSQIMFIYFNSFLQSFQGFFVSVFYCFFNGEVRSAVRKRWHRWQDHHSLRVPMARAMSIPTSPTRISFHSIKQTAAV
T1 sequence (P24387 whole entry): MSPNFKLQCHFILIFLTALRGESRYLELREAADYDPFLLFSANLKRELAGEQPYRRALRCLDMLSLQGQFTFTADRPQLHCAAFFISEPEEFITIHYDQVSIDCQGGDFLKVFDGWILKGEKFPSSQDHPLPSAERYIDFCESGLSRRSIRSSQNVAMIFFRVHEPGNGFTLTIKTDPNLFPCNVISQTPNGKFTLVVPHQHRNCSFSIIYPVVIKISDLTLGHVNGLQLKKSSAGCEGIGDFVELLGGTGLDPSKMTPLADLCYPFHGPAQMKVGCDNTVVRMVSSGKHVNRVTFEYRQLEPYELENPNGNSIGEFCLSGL

[2] = target: T1, Corticotropin-releasing factor receptor 2/Corticotropin-releasing factor-binding protein; test: activators of CRF receptor 2 with binding protein – uHTS hits, confirmation (AID 602473); format: functional; details: read-out: EC50_Mean
[3] = target: T2, Replicative DNA helicase DnaB (Mycobacterium tuberculosis, UniProt P9WMR3); test: DnaB intein splicing inhibitors, dose response, biochemical, cell-free fluorescence (AID 449749); format: functional
T2 sequence (P9WMR3 whole entry): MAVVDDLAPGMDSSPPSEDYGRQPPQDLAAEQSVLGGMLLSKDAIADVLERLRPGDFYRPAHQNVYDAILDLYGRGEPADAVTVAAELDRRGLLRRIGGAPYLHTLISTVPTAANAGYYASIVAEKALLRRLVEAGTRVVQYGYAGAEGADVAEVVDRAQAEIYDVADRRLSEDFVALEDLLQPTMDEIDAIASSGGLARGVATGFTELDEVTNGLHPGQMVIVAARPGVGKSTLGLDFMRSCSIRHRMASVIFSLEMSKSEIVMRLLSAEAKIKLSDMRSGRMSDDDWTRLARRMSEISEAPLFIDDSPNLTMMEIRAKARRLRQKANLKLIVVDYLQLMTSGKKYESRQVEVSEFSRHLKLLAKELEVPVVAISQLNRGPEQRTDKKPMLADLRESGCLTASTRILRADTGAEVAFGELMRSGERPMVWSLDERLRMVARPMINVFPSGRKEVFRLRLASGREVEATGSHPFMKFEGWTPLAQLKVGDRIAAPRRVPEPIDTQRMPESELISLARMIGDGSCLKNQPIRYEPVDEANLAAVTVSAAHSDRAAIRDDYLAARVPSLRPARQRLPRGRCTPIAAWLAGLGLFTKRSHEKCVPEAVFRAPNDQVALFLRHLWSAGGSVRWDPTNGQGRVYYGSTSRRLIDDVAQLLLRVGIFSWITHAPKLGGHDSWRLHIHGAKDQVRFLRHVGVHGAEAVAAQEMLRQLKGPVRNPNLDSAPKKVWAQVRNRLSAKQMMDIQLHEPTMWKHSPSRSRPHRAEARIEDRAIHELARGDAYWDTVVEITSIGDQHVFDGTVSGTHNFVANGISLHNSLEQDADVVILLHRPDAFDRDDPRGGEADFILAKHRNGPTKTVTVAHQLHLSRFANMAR

[4] = target: T3, Protein RecA (Mycobacterium tuberculosis, UniProt P9WHJ3); test: Fluorescence Cell-Free Homogeneous Dose Retest to Identify Inhibitors of RecA-Intein Splicing Activity. [Related pubchem assays (depositor defined):AID2097, AID2223, AID489010, AID492950]; format: functional
T3 sequence (P9WHJ3 whole entry): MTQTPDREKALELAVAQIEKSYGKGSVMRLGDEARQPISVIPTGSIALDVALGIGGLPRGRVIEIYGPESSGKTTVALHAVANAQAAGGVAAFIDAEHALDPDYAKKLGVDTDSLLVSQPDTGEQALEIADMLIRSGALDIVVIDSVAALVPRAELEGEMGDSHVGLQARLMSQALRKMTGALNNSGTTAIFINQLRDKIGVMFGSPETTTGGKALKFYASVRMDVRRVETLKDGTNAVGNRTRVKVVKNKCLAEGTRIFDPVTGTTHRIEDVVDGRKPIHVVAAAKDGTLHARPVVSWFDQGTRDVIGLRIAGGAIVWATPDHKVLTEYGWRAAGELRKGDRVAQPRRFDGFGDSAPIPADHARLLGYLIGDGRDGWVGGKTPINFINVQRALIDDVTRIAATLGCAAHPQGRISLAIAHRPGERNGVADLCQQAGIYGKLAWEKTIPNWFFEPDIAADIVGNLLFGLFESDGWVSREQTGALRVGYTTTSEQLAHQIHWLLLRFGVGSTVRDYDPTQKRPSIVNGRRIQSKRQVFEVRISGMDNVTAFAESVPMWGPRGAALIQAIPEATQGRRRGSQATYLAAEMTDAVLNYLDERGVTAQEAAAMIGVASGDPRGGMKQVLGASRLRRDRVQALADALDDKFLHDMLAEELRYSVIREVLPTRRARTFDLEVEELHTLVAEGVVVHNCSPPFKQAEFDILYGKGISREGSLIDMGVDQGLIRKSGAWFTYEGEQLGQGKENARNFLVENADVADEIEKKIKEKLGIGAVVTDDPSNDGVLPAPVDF

[5] = target: Cytochrome P450 2C19 (Homo sapiens, UniProt P33261); test: Cytochrome panel assay with activity outcomes. Panel member name: p450-cyp2c19 Compounds with AC50 equal or less than 10 uM are considered active; format: functional
Sequence of Cytochrome P450 2C19 (P33261 whole entry): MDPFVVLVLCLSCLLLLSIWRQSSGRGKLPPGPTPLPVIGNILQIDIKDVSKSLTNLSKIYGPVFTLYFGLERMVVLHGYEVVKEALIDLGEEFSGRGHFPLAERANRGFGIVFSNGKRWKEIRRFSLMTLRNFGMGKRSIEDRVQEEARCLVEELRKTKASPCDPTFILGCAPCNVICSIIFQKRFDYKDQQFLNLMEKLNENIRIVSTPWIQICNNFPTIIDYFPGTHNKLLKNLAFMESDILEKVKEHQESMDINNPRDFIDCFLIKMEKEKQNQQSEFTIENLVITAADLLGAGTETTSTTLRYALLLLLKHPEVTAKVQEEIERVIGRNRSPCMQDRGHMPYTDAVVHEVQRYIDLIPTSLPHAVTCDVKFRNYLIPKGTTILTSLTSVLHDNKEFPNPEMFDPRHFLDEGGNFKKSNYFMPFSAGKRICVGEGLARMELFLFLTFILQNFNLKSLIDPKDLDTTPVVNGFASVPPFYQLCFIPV

[6] = Luminescence Cell-Based Dose Retest to Confirm Inhibitors of Cancer Stem Cells. [Related pubchem assays (depositor defined):AID2717, AID2721]; format: functional; details: Homo sapiens
[7] = target: Cytochrome P450 3A4 (Homo sapiens, UniProt P08684);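 also: CYP3A4 tested as one member of a cytochrome P450 panel screen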
Sequence of Cytochrome P450 3A4 (P08684 whole entry): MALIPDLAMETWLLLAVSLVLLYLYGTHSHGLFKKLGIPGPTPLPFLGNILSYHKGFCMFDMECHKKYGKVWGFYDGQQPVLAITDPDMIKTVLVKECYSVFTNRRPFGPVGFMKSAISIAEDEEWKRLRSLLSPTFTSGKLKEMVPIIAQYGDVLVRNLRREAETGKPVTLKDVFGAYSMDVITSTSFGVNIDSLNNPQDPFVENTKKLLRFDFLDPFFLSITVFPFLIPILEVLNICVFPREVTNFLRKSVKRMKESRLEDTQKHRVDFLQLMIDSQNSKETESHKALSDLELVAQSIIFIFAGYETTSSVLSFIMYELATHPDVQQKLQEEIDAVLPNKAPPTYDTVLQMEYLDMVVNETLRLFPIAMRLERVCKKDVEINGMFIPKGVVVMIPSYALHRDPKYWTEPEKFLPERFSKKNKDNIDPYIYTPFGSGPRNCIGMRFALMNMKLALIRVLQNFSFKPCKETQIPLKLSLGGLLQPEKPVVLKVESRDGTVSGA

[8] = target: Cytochrome P450 2C9 (Homo sapiens, UniProt P11712)
Sequence of Cytochrome P450 2C9 (P11712 whole entry): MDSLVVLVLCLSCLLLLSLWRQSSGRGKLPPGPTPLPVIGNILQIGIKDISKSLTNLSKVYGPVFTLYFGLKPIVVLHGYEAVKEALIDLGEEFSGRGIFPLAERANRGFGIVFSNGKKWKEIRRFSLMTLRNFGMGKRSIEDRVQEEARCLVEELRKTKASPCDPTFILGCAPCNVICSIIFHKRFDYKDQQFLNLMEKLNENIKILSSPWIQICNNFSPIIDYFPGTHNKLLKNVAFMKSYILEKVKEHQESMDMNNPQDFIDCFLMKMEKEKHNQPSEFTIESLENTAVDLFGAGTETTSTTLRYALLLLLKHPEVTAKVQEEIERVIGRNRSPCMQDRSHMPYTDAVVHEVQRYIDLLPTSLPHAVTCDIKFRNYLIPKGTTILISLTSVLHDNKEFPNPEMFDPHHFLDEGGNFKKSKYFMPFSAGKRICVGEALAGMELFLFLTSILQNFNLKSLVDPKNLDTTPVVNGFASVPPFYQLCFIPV

Structure (SMILES): O=C(NN1C(=O)CSC1=S)c1cccnc1
- IC50 [1]: > 47.1 µM (inactive)
- EC50 [2]: > 53 µM (inactive)

Structure (SMILES): O=C1C(Cc2ccccc2)Nc2ncnc(N3CCc4ccccc4C3)c2N1Cc1ccc(Cl)cc1 (stereo not given)
- AC50 [3]: > 120 µM (inactive)
- EC50 [4]: > 380 µM (inconclusive)

Structure (SMILES): CC(C)=CCC/C(C)=C/CO/N=C1/C[C@@H](O)[C@@H](O)[C@@H]2[C@@H]3C(=O)N(Cc4ccccc4)C(=O)[C@H]3CC[C@@H]12
- AC50 [5]: inconclusive

Structure (SMILES): O=C(CSc1nnnn1-c1ccccc1)NCCCN1CCCC1=O
- IC50 [1]: > 47.1 µM (inactive)
- EC50 [2]: > 53 µM (inactive)

Structure (SMILES): COc1ccc(OC)c(Nc2c3ccccc3nc3ccccc23)c1
- AC50 [6]: 3.78 µM (active)

Structure (SMILES): Cc1ccc(N2CC(C(=O)NC3CCC(C)CC3)CC2=O)cc1 (stereo not given)
- IC50 [1]: > 47.1 µM (inactive)
- EC50 [2]: > 53 µM (inactive)

Structure (SMILES): CCCOc1c(OC)cccc1C1CC(=O)Nc2cc3c(cc21)OCCO3 (stereo not given)
- AC50 [6]: 1.85 µM (active)

Structure (SMILES): O=C1C(=Cc2cccs2)C(=O)c2ccccc21
- IC50 [1]: > 47.1 µM (inactive)
- EC50 [2]: > 53 µM (inactive)

Structure (SMILES): CCOC(=O)N1CCN(C(=O)CSc2nnc(-c3ccc(C(C)(C)C)cc3)o2)CC1
- IC50 [1]: > 47.1 µM (inactive)
- EC50 [2]: > 53 µM (inactive)

Structure (SMILES): Cc1ccc(SC[C@H](C)CN2CC[C@H](C(C)(C)C)CCC2=O)cc1
- AC50 [6]: 1.56 µM (active)

Structure (SMILES): Cc1ccc(NC(=O)c2cnc(SCC(=O)NCC3CCCO3)n(C)c2=O)cc1C (stereo not given)
- AC50 [3]: 7.83 µM (active)
- EC50 [4]: 2.23 µM (active)

Structure (SMILES): CCOc1ccccc1NC(=O)CCC(=O)O
- AC50 ([5]; read-out: AC50): 3.16 µM (inconclusive)

Structure (SMILES): Cc1cc(C(F)F)n2nc(C(=O)Nc3sc4c(c3C#N)CCC(C)C4)nc2n1 (stereo not given)
- AC50 [7]: 15.8 µM (inconclusive)
- AC50 ([5]; read-out: AC50): 31.6 µM (inconclusive)

Structure (SMILES): OC(C#CCN1CCCCCC1)(c1ccccc1)c1cccnc1 (stereo not given)
- IC50 [1]: > 47.1 µM (inactive)
- EC50 [2]: > 53 µM (inactive)

Structure (SMILES): N#C/C(=C\c1ccccc1)c1nc2ccc[nH]c-2n1
- AC50 ([5]; read-out: AC50): 28.2 µM (inconclusive)

Structure (SMILES): COc1ccc(CCNC2=C(Cl)C(=O)N(Cc3ccccc3)C2=O)cc1OC
- IC50 [1]: > 47.1 µM (inactive)
- EC50 [2]: > 53 µM (inactive)

Structure (SMILES): COc1ccccc1CNc1nc(-c2ccccc2CN(C)C)nc2ccccc12
- AC50 ([5]; read-out: AC50): 25.1 µM (inconclusive)

Structure (SMILES): Cc1cccc(-c2nc(C[S+]([O-])CC(=O)N3CC(C)CC(C)C3)c(C)o2)c1 (stereo not given)
- IC50 [1]: > 47.1 µM (inactive)
- EC50 [2]: > 53 µM (inactive)

Structure (SMILES): Cc1sc(NC(=O)/C=C/C(=O)O)c(C(N)=O)c1-c1ccc(C(C)(C)C)cc1
- AC50 [3]: > 380 µM (inactive)
- EC50 [4]: 5.82 µM (active)

Structure (SMILES): CCCc1nnc(SCC(=O)N2CCCCC2C)n1CCCOC (stereo not given)
- AC50 [7]: 15.8 µM (inconclusive)
- AC50 ([5]; read-out: AC50): 39.8 µM (inconclusive)
- AC50 [8]: 0.0251 µM (inconclusive)

Structure (SMILES): COCCCN1Cc2ccccc2C1=N
- AC50 ([5]; read-out: AC50): 39.8 µM (inconclusive)
- AC50 [8]: 11.2 µM (inconclusive)

Structure (SMILES): CN1CCC[C@@H]1c1cccnc1.Cc1ccc(C(=O)O[C@@H](C(=O)O)[C@@H](OC(=O)c2ccc(C)cc2)C(=O)O)cc1
- AC50 [5]: inconclusive

Structure (SMILES): S=C(Nc1ccc(Oc2ccccc2)cc1)NC1CCCCCC1
- AC50 [6]: 5.01 µM (active)

Structure (SMILES): C[C@@H]1CC=C[C@H]2[C@H]1C(=O)N(Cc1ccccc1)[C@H]2c1ccc2ccccc2c1
- AC50 [6]: 5.69 µM (active)

Structure (SMILES): O=c1c(CCc2ccccc2)nc2cnc(Oc3ccccc3)nc2n1C[C@H]1CCCO1
- AC50 [7]: 0.0794 µM (inconclusive)
- AC50 ([5]; read-out: AC50): 39.8 µM (inconclusive)

Structure (SMILES): CS(=O)(=O)c1ccc(C(=O)CN2C(=O)NC3(CCCc4ccccc43)C2=O)cc1 (stereo not given)
- IC50 [1]: > 47.1 µM (inactive)
- EC50 [2]: > 53 µM (inactive)

Structure (SMILES): CC(C)c1nc2ccccn2c1NC1CCCCC1
- AC50 ([5]; read-out: AC50): 22.4 µM (inconclusive)
- AC50 [8]: 39.8 µM (inconclusive)

Structure (SMILES): Cc1n[nH]c2c1C1(CCN(Cc3ccccc3)CC1)C(C#N)=C(N)O2
- AC50 [3]: > 380 µM (inactive)
- EC50 [4]: 1.07 µM (active)

Structure (SMILES): CCNc1ncc2nc(CCc3ccccc3)c(=O)n(-c3ccc(OC)cc3)c2n1
- AC50 ([5]; read-out: AC50): 39.8 µM (inconclusive)
- AC50 [8]: 15.8 µM (inconclusive)

Structure (SMILES): CC1=NN(c2ccccc2)C(=O)C1/C=C1\C(=O)NC(=O)N(c2ccc(C)c(C)c2)C1=O (stereo not given)
- AC50 [3]: 23.6 µM (active)
- EC50 [4]: 3.37 µM (active)

Structure (SMILES): O=C1NC(=O)N(CCc2ccc(F)cc2)C(=O)/C1=C/NCCCN1CCOCC1
- AC50 [5]: inconclusive

Structure (SMILES): Cc1noc(C)c1COc1cccc(C(=O)Nc2ccc(OCc3ccccc3)cc2)c1
- AC50 [6]: 10.8 µM (active)

Structure (SMILES): O=C(O)C1C2CCC(C2)C1C(=O)NCc1ccco1 (stereo not given)
- AC50 ([5]; read-out: AC50): 7.94 µM (inconclusive)

Structure (SMILES): COc1cc2[nH]c(=O)n(CCCCCC(=O)NC3CCCC3)c(=O)c2cc1OC
- IC50 [1]: > 47.1 µM (inactive)
- EC50 [2]: > 53 µM (inactive)

Structure (SMILES): CC(C)(C)NC(=O)C(c1ccccn1)N(C(=O)C1CSC(=O)C1)c1cccc(F)c1 (stereo not given)
- IC50 [1]: > 47.1 µM (inactive)
- EC50 [2]: > 53 µM (inactive)

Structure (SMILES): O=C(/C=C/c1ccc2ccccc2n1)N1CCN(c2ccccc2)CC1
- IC50 [1]: > 47.1 µM (inactive)
- EC50 [2]: > 53 µM (inactive)
